Where “and” joins values, the source holds several entries; their conditions need not be identical. Equal values may be shown once. Toxic doses and inconclusive results are not listed. Rule for the calls: active = survival T/C of 150% or more; inactive = T/C below 125% in these data.
Tested on: CD2F1 mice, L1210 leukemia ip, survival T/C
Test: NCI In Vivo Anticancer Drug Screen. Data for tumor model L1210 Leukemia (intraperitoneal) in CD2F1 (CDF1) mice
Conditions: higher = longer survival
Summary of the method: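 Mice carrying a transplanted tumor received test compound or vehicle alone. The value is the measurement in the treated group divided by that in the vehicle-treated control group.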

[1] = endpoint: mean survival time, dose: 25.0 mg/kg/injection, schedule: Q01DX009 (ip), vehicle: saline with Tween-80
[2] = endpoint: mean survival time, dose: 50.0 mg/kg/injection, schedule: Q01DX009 (ip), vehicle: saline with Tween-80
[3] = endpoint: mean survival time, dose: 100.0 mg/kg/injection, schedule: Q01DX009 (ip), vehicle: saline with Tween-80
[4] = endpoint: mean survival time, dose: 12.5 mg/kg/injection, schedule: Q01DX009 (ip), vehicle: saline with Tween-80
[5] = endpoint: mean survival time, dose: 200.0 mg/kg/injection, schedule: Q01DX009 (ip), vehicle: saline with Tween-80
[6] = endpoint: mean survival time, dose: 100.0 mg/kg/injection, schedule: Q04DX003 (ip), vehicle: saline with Tween-80
[7] = endpoint: mean survival time, dose: 200.0 mg/kg/injection, schedule: Q04DX003 (ip), vehicle: saline with Tween-80
[8] = endpoint: mean survival time, dose: 400.0 mg/kg/injection, schedule: Q04DX003 (ip), vehicle: saline with Tween-80
[9] = endpoint: mean survival time, dose: 50.0 mg/kg/injection, schedule: Q01DX001 (ip), vehicle: saline with Tween-80
[10] = endpoint: mean survival time, dose: 6.25 mg/kg/injection, schedule: Q01DX009 (ip), vehicle: saline with Tween-80
[11] = endpoint: mean survival time, dose: 400.0 mg/kg/injection, schedule: Q01DX009 (ip), vehicle: saline with Tween-80
[12] = endpoint: mean survival time, dose: 150.0 mg/kg/injection, schedule: Q01DX001 (ip), vehicle: saline
[13] = endpoint: mean survival time, dose: 50.0 mg/kg/injection, schedule: Q01DX009 (ip), vehicle: saline
[14] = endpoint: mean survival time, dose: 100.0 mg/kg/injection, schedule: Q01DX009 (ip), vehicle: saline
[15] = endpoint: mean survival time, dose: 200.0 mg/kg/injection, schedule: Q01DX009 (ip), vehicle: saline

Measured: T/C

Cc1nc2[nH]c(=O)[nH]c(=O)c2[nH]1
inactive: [1] 94 % of control | [2] 96 % of control | [3] 92 % of control

C[n+]1cccc(C(=O)N/N=C/CCc2ccccc2)c1
inactive: [4] 92 % of control | [1] 93 % of control | endpoint: mean survival time, dose: 25.0 mg/kg/injection, schedule: Q04DX002 (ip), vehicle: saline with Tween-80 100 % of control | [2] 97 % of control | endpoint: mean survival time, dose: 50.0 mg/kg/injection, schedule: Q04DX002 (ip), vehicle: saline with Tween-80 95 % of control | [3] 97 % of control | endpoint: mean survival time, dose: 100.0 mg/kg/injection, schedule: Q04DX002 (ip), vehicle: saline with Tween-80 101 % of control | endpoint: mean survival time, dose: 200.0 mg/kg/injection, schedule: Q04DX002 (ip), vehicle: saline with Tween-80 97 % of control

CC(C)(CO)CCCCCCC(C)(C)CO
inactive: [2] 98 % of control | [3] 106 % of control | [5] 106 % of control

Cc1nnnn1C12CC3CC(CC(C3)C1)C2
inactive: endpoint: mean survival time, dose: 9.4 mg/kg/injection, schedule: Q01DX009 (ip), vehicle: saline with Tween-80 94 % of control

CCC(C)(S)C(NC(C)=O)C(=O)O (centres undefined)
inactive: [6] 98 % of control | [7] 101 % of control | [8] 104 % of control

N=C(N)c1ccc(OCCCOc2ccc(NC(=O)Nc3ccc(S(=O)(=O)F)cc3)cc2)cc1
inactive: [9] 95 % of control | endpoint: mean survival time, dose: 100.0 mg/kg/injection, schedule: Q01DX001 (ip), vehicle: saline with Tween-80 89 % of control | endpoint: mean survival time, dose: 200.0 mg/kg/injection, schedule: Q01DX001 (ip), vehicle: saline with Tween-80 93 % of control

O=C(O)c1cc(-c2ccccc2)nc2c1ccc1ccccc12
inactive: endpoint: mean survival time, dose: 100.0 mg/kg/injection, schedule: Q01DX001 (ip), vehicle: saline 103 % of control | endpoint: mean survival time, dose: 200.0 mg/kg/injection, schedule: Q01DX001 (ip), vehicle: saline 102 % of control | endpoint: mean survival time, dose: 400.0 mg/kg/injection, schedule: Q01DX001 (ip), vehicle: saline 97 % of control

Cc1ccc(NC(=O)NC(C)C)c(C)c1
inactive: [10] 97 % of control | [4] 100 % of control | [1] 97 % of control

Nc1ccc(OC(=O)c2ccccc2)cc1
inactive: endpoint: mean survival time, dose: 12.5 mg/kg/injection, schedule: Q01DX001 (ip), vehicle: saline with Tween-80 92 % of control | [4] 91 % of control | endpoint: mean survival time, dose: 25.0 mg/kg/injection, schedule: Q01DX001 (ip), vehicle: saline with Tween-80 90 % of control | [1] 86 % of control | [9] 90 % of control

Cc1ccc(NC(=O)c2ccccc2Cl)c(C)c1
inactive: [3] 110 % of control | [6] 104 % of control | [5] 93 % of control | [7] 101 % of control | [11] 98 % of control | [8] 97 % of control

O=C1CCn2cccc21
inactive: endpoint: median survival time, dose: 25.0 mg/kg/injection, schedule: Q04DX002 (ip), vehicle: saline 100 % of control | endpoint: median survival time, dose: 50.0 mg/kg/injection, schedule: Q04DX002 (ip), vehicle: saline 100 % of control | endpoint: median survival time, dose: 100.0 mg/kg/injection, schedule: Q04DX002 (ip), vehicle: saline 100 % of control | endpoint: median survival time, dose: 200.0 mg/kg/injection, schedule: Q04DX002 (ip), vehicle: saline 100 % of control

COc1ccc(-c2cc3ccccc3c(=O)o2)cc1
inactive: [3] 98 % of control | [5] 98 % of control | [11] 91 % of control

CCc1c(C)c(C)cc(S(=O)(=O)O)c1C
inactive: [2] 104 % of control | [3] 93 % of control | [6] 101 % of control | [5] 89 % of control | [7] 87 % of control

ClCc1ccc(CCl)c(Cl)c1Cl
inactive: [6] 96 % of control

CCOC(=O)/C=C1\NC(=O)N(CCCN2C(=O)N/C(=C\C(=O)OCC)C2=O)C1=O
inactive: endpoint: mean survival time, dose: 3.13 mg/kg/injection, schedule: Q01DX009 (ip), vehicle: saline with Tween-80 95 % of control | [10] 98 % of control | [4] 95 % of control | [2] 92 % of control

OCC(O)C(O)C(O)C(/C=N/Nc1ccccc1)=N/Nc1ccccc1 (centres undefined)
inactive: endpoint: mean survival time, dose: 75.0 mg/kg/injection, schedule: Q01DX001 (ip), vehicle: saline 95 % of control | [12] 95 % of control | endpoint: mean survival time, dose: 300.0 mg/kg/injection, schedule: Q01DX001 (ip), vehicle: saline 95 % of control

CCOC(=O)C(C)C(C)(O)c1ccccc1 (centres undefined)
inactive: [6] 97 % of control | [7] 97 % of control | [8] 98 % of control

O=C1OCCCC1O (centres undefined)
inactive: [12] 97 % of control

O=C(O)C1CC1c1ccccc1 (centres undefined)
inactive: [6] 95 % of control | [7] 103 % of control | [8] 100 % of control

Clc1nc(Cl)nc(-c2cccn2-c2ccccc2)n1
inactive: [3] 93 % of control | [6] 102 % of control | [7] 108 % of control | [8] 115 % of control

[O-][n+]1cccc(CCc2ccc[n+]([O-])c2)c1
inactive: [13] 100 % of control | [14] 104 % of control | [15] 100 % of control

Oc1cccc(O)c1
inactive: [13] 98 % of control | [14] 95 % of control | [15] 101 % of control

S=C1SCCCS1
inactive: endpoint: mean survival time, dose: 75.0 mg/kg/injection, schedule: Q04DX003 (ip), vehicle: Klucel (hydroxypropylcellulose) (HPC) 103 % of control | endpoint: mean survival time, dose: 150.0 mg/kg/injection, schedule: Q04DX003 (ip), vehicle: Klucel (hydroxypropylcellulose) (HPC) 98 % of control | endpoint: mean survival time, dose: 300.0 mg/kg/injection, schedule: Q04DX003 (ip), vehicle: Klucel (hydroxypropylcellulose) (HPC) 98 % of control

CC(=O)OCC1OC(OC(C)=O)C(NC(=O)N(CCOCCCl)N=O)C(OC(C)=O)C1OC(C)=O (centres undefined)
inactive: endpoint: mean survival time, dose: 6.25 mg/kg/injection, schedule: Q01DX001 (ip), vehicle: distilled water + Tween-80 101 % of control | endpoint: mean survival time, dose: 12.5 mg/kg/injection, schedule: Q01DX001 (ip), vehicle: distilled water + Tween-80 101 % of control | endpoint: mean survival time, dose: 25.0 mg/kg/injection, schedule: Q01DX001 (ip), vehicle: distilled water + Tween-80 93 % of control | endpoint: mean survival time, dose: 50.0 mg/kg/injection, schedule: Q01DX001 (ip), vehicle: distilled water + Tween-80 93 % of control | endpoint: mean survival time, dose: 100.0 mg/kg/injection, schedule: Q01DX001 (ip), vehicle: distilled water + Tween-80 101 % of control | endpoint: mean survival time, dose: 200.0 mg/kg/injection, schedule: Q01DX001 (ip), vehicle: distilled water + Tween-80 97 % of control | endpoint: mean survival time, dose: 400.0 mg/kg/injection, schedule: Q01DX001 (ip), vehicle: distilled water + Tween-80 109 % of control

O=[N+]([O-])O.[Cr+3].[NH2-].[NH2-].[NH2-].[NH2-].[NH2-].[NH2-]
inactive: endpoint: mean survival time, dose: 6.25 mg/kg/injection, schedule: Q01DX009 (ip), vehicle: saline sonified 88 % of control | endpoint: mean survival time, dose: 12.5 mg/kg/injection, schedule: Q01DX009 (ip), vehicle: saline sonified 97 % of control | endpoint: mean survival time, dose: 25.0 mg/kg/injection, schedule: Q01DX009 (ip), vehicle: saline sonified 90 % of control

CN(C)N=Nc1ccc(C(N)=O)cc1C(N)=O
inactive: endpoint: mean survival time, dose: 18.75 mg/kg/injection, schedule: Q01DX009 (ip), vehicle: Klucel (hydroxypropylcellulose) (HPC) 115 % of control and 104 % of control | endpoint: mean survival time, dose: 37.5 mg/kg/injection, schedule: Q01DX009 (ip), vehicle: Klucel (hydroxypropylcellulose) (HPC) 122 % of control and 112 % of control | endpoint: mean survival time, dose: 75.0 mg/kg/injection, schedule: Q01DX009 (ip), vehicle: Klucel (hydroxypropylcellulose) (HPC) 123 % of control and 124 % of control

CCCCCCCCC1SC1CCCCCCCC(=O)OCCN(C)C(=O)CCCCCCCC1SC1CCCCCCCC (centres undefined)
inactive: endpoint: mean survival time, dose: 100.0 mg/kg/injection, schedule: Q04DX003 (ip), vehicle: other 100 % of control | endpoint: mean survival time, dose: 200.0 mg/kg/injection, schedule: Q04DX003 (ip), vehicle: other 92 % of control | endpoint: mean survival time, dose: 400.0 mg/kg/injection, schedule: Q04DX003 (ip), vehicle: other 90 % of control
